From patent US9931351B2, “Method for improving leptin resistance” (Kyoto University, priority 2013, dated 2018)

Tests used:
Format in all cases: in vivo
[1] = test system: A-ZIP/F-1 mice; assay: Test Example 3: effects to improve metabolism in A-ZIP/F-1 mice, a model of generalized lipodystrophy; details: standard diet, 50 mg/kg/day intraperitoneal once a day, four weeks; for level of nonesterified fatty acid / level of total cholesterol / level of triglyceride: plasma
From the text: A-ZIP/F-1 mice, which are used as a model of generalized lipodystrophy, have substantially no white adipocyte and thus cannot produce leptin (Moitra et al. Genes Dev 12: 3168-3181, 1998). Eight-week old male A-ZIP/F-1 mice, gifted from Dr. Reitman of National Institutes of Health, were divided into two treatment groups: “Vehicle (V)” and “Compound 57”. The mice were kept for four weeks with ad libitum feeding of standard diet (SD), and the body weight and the food intake of the mice were measured. The vehicle and Compound 57 were administered to the mice by intraperitoneal injection once a day. The dosage of Compound 57 was 50 mg/kg/day. After the four weeks the mice were sacrificed and blood, epididymal adipose tissues, and the liver were collected. The weight of the adipose tissues, the liver weight, the liver triglyceride levels, the plasma levels of glucose, insulin, total cholesterol (T-chol), triglyceride (TG) and nonesterified fatty acid (NEFA) were measured (n=5 for each group). The equivalent dosage of Compound 32 was tested in a similar manner (n=5 for each group).

[2] = test system: leptin-deficient ob/ob mice; assay: Test Example 2: effects to improve metabolism in leptin-deficient ob/ob mice; details: standard diet, 50 mg/kg/day intraperitoneal once a day, four weeks; for weight of the adipose tissues: epididymal; for nonesterified fatty acid levels / total cholesterol levels / triglyceride levels: plasma
Protocol: Ob/ob mice cannot produce leptin due to a mutation in the leptin gene (Zhang et al. Nature 372: 425-432, 1994). Eight-week old male ob/ob mice, purchased from CHARLES RIVER LABORATORIES JAPAN, INC., were divided into two treatment groups: “Vehicle (V)” and “Compound 57”. The mice were kept for four weeks with ad libitum feeding of standard diet (SD), and the body weight and the food intake of the mice were measured. The vehicle and Compound 57 were administered to the mice by intraperitoneal injection once a day. The dosage of Compound 57 was 50 mg/kg/day. After the four weeks the mice were sacrificed and blood, epididymal adipose tissues, and the liver were collected. The weight of the adipose tissues, the liver weight, the liver triglyceride levels, and the plasma levels of glucose, insulin, total cholesterol (T-chol), triglyceride (TG) and nonesterified fatty acid (NEFA) were measured (n=5 for each group). The equivalent dosage of Compound 32 was tested in a similar manner (n=5 for each group).

[3] = test system: wild type mice under the high fat diet condition; assay: Test Example 1: effects to improve metabolism in wild type mice under a high fat diet condition; details: 60% high fat diet, 50 mg/kg/day intraperitoneal once a day, four weeks; for weight of the adipose tissues: epididymal
Protocol: Eight-week old male wild type mice and transgenic mice overexpressing leptin (LepTg) (Ogawa et al. Diabetes 48: 1822-1829, 1999, prepared in Department of Endocrinology and Metabolism, Kyoto University) were divided into three treatment groups, respectively: “standard diet (SD)+vehicle (V)”, “60% high fat diet (HFD)+vehicle”, and “60% high fat diet+Compound 57”. The mice were kept for four weeks with ad libitum feeding, and the body weight and the food intake of the mice were measured. The vehicle and Compound 57 were administered to the mice by intraperitoneal injection once a day. The dosage of Compound 57 was 50 mg/kg/day. After the four weeks the mice were sacrificed and blood, epididymal adipose tissues, and the liver were collected. The weight of the adipose tissues, the liver weight, the liver triglyceride levels, and the plasma levels of glucose, insulin, total cholesterol (T-chol), triglyceride (TG), and nonesterified fatty acid (NEFA) were measured (n=5 for each group). The equivalent dosage of Compound 32 was tested in a similar manner (n=5 for each group).

Compound: Nc1c(/N=N/c2ccc(-c3cccc4c3sc3ccccc34)nc2)cc(S(=O)(=O)[O-])c2ccccc12.[Na+] [Compound 57, 4-amino-3-(6-dibenzothiophene-4-ylpyridine-3-ylazo)naphthalene-1-sulfonic acid sodium salt]
- body weight [1]: slightly decreased
- food intake [1]: did not change
- liver triglyceride levels [1]: decreased
- liver weight [1]: decreased
- plasma insulin levels [1]: did not change
- random plasma glucose levels [1]: did not change
- level of nonesterified fatty acid [1]: decreased
- level of total cholesterol [1]: decreased
- level of triglyceride [1]: decreased
- body weight [2]: decreased
- food intake [2]: did not change
- liver triglyceride levels [2]: decreased
- liver weight [2]: decreased
- plasma insulin levels [2]: did not change
- random plasma glucose levels [2]: did not change
- weight of the adipose tissues [2]: decreased
- nonesterified fatty acid levels [2]: decreased
- total cholesterol levels [2]: decreased
- triglyceride levels [2]: did not clearly change
- body weight [3]: did not increase
- food intake [3]: did not increase
- liver triglyceride levels [3]: did not increase
- liver weight [3]: did not increase
- plasma insulin levels [3]: did not increase
- plasma level of nonesterified fatty acid [3]: did not increase
- plasma level of total cholesterol [3]: did not increase
- plasma level of triglyceride [3]: did not increase
- random plasma glucose levels [3]: did not increase
- weight of the adipose tissues [3]: did not increase

Compound: Cc1cc(F)ccc1-c1ccc(/N=N/c2cc(S(=O)(=O)[O-])c3ccccc3c2N)cn1.[Na+] [Compound 32, 4-amino-3-[6-(4-fluoro-2-methylphenyl)pyridine-3-ylazo]naphthalene-1-sulfonic acid sodium salt]
- body weight [1]: did not
- food intake [1]: did not change
- liver triglyceride levels [1]: did not change
- liver weight [1]: did not change
- plasma insulin levels [1]: did not change
- random plasma glucose levels [1]: did not change
- level of nonesterified fatty acid [1]: did not change
- level of total cholesterol [1]: did not change
- level of triglyceride [1]: did not change
- body weight [2]: did not
- food intake [2]: did not change
- liver triglyceride levels [2]: did not change
- liver weight [2]: did not change
- plasma insulin levels [2]: did not change
- random plasma glucose levels [2]: did not change
- weight of the adipose tissues [2]: did not change
- nonesterified fatty acid levels [2]: did not change
- total cholesterol levels [2]: did not change
- triglyceride levels [2]: did not change
- body weight [3]: did not increase
- food intake [3]: did not increase
- liver triglyceride levels [3]: did not increase
- liver weight [3]: did not increase
- plasma insulin levels [3]: did not increase
- plasma level of nonesterified fatty acid [3]: did not increase
- plasma level of total cholesterol [3]: did not increase
- plasma level of triglyceride [3]: did not increase
- random plasma glucose levels [3]: did not increase
- weight of the adipose tissues [3]: did not increase
